Measurements as given in PMC9424906 (Frontiers in Pharmacology, 2022).
Entries after “also recorded” stand apart in the source; their conditions may differ. Like-named read-outs stand apart in the source and are kept apart here.

Columns and labels:
[1] = tested on: SARS-CoV-2 (USA_WA1/2020); assay: SARS-CoV-2 cytopathic effect (CPE) assay in Vero E6 cells; assay type: cell-based; conditions: Severe acute respiratory syndrome coronavirus 2, Vero C1008; Vero E6 cells, MOI 0.002, 72 h, n = 2; read-out: EC50, inhibition of SARS-CoV-2 CPE
[2] = Pharmacokinetics in Sprague Dawley rats; assay type: in vivo; conditions: male, rat; for Vd / clearance / AUC(0-inf) / Cmax / Tmax / bioavailability: in vivo; for Vd / clearance: iv; for AUC(0-inf) / Cmax / Tmax / bioavailability / half-life: po; for half-life: plasma, Rat
Experimental: Adult male C57BL/6 mice and Sprague Dawley rats were purchased from Charles River Laboratory (Wilmington, MA). PK studies for mice and rats were conducted at NIH animal facility (Bethesda, MD). In-life dog and monkey PK studies were conducted at Absorption System (San Diego, CA) and Frontage Labs (Concord, OH), respectively. Dogs and monkeys were fasted overnight prior to dose administrations. All experimental procedures were reviewed and approved by the Animal Care and Use Committee (ACUC) of the NIH Division of Veterinary Resources (DVR) or CRO labs for in-life studies.
Male Sprague–Dawley rats (n = 3 or 4 per treatment group, ∼ 343–375 g) were dosed in IV and PO dosing groups: 1 and 5 mg/kg IV, and 10, 30 and 100 mg/kg PO, respectively. Double cannulated rats (one catheter for IV dosing and another one for sampling) were used. Plasma samples were collected from jugular vein over 24 h. In bile duct cannulated (BDC) rat group, a single IV dose of 2 mg/kg was administered to three rats. Rat urine and bile samples were collected for the pre-dose, 0–4 h, 4–8 h, and 8–24 h time periods for BDC rats.
Blood samples from all groups and species were collected in K2EDTA tubes and stored on wet ice pending processing. Blood was centrifuged at 2200 g at 4°C for 10 min to isolate plasma. All samples were stored at -80°C until analysis.
Phoenix WinNonlin, version 8.1 (Certara, St. Louis, MO), was used to perform PK analysis with the non-compartmental approach (Models 200 and 201 for PO and IV datasets). The area under the plasma concentration vs. time curve (AUC) was calculated using the linear trapezoidal method. The terminal rate constant (λ) was obtained from the slope of at least three data points of the apparent terminal phase of the log-linear plasma concentration vs. time curve when available. AUC0–∞ was estimated as the sum of the AUC0–t (where t is the time of the last measurable concentration) and Ct/λ. The apparent terminal half-life (t½) was calculated as 0.693/λ. Bioavailability (F) was calculated using ratios of dose normalized AUC (AUC/Dose) obtained from PO and IV PK studies.

[3] = 7-days dose range finding study in dogs; conditions: oral, 2000 mg/kg/day
[4] = tested on: SARS-CoV-2 (2019-nCoV/USA-WAl/2020); assay type: cell-based; conditions: EpiAirway 3D HAE tissue model
[5] = target: T1, BCRP (Homo sapiens, UniProt Q9UNQ0); assay: Bidirectional transport in MDCK-BCRP monolayers; assay type: in vitro ADME; conditions: dog, MDCK-BCRP, 5 µM
T1 construct: host or cells: MDCK (BCRP-MDCK)
T1 sequence (Q9UNQ0 1-655): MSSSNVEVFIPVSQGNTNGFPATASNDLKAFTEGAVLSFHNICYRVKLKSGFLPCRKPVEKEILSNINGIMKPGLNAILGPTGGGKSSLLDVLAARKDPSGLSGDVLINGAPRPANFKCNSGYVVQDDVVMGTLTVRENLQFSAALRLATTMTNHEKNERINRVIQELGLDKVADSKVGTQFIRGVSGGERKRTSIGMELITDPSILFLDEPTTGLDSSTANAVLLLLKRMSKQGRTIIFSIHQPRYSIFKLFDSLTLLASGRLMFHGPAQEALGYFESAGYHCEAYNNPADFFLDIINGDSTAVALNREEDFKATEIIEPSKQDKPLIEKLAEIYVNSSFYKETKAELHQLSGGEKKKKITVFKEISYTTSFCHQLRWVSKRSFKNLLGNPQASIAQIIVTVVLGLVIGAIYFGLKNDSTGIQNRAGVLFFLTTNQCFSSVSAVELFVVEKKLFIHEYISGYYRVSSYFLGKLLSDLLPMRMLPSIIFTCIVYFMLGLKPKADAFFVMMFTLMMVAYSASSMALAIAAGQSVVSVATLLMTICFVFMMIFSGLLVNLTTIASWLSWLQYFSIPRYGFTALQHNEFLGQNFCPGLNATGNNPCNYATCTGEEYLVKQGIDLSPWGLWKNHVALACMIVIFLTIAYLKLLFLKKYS
Experimental: Caco-2 (American Type Culture Collection), MDR1-MDCK (NIH), and BCRP-MDCK (transfected by Absorption Systems) cell monolayers were grown to confluence on collagen-coated, microporous membranes in 12-well assay plates. Caco-2 cells were cultured for 27 days, MDCK-MDR1 and MDCK-BCRP cells were cultured for 8 days prior to experiments. […] The experiment was carried out in Hanks’ balanced salt solution (HBSS) containing 10 mM HEPES and 15 mM glucose at pH 7.4. HBSS in the receiver chamber also contained 1% bovine serum albumin. Cells were first pre-incubated for 0.5 h in HBSS with or without the specific inhibitor (1 µM valspodar or 0.5 µM Ko143 for MDR1 and BCRP, respectively). […] Cell monolayers were dosed on the apical side (A to B) or basolateral side (B to A) and incubated at 37°C with 5% CO2 in a humidified incubator. Samples were taken from the donor and receiver chambers at 2 h. Each experiment was performed in duplicate. All samples were assayed by LC-MS/MS. The apparent permeability (Papp) and percent recovery were calculated as described previously ([Katoh et al., 2006]; [Xia et al., 2006]; [Li et al., 2008]).

[6] = target: T2, CNT3 (Homo sapiens, UniProt Q9HAS3); assay: Nucleoside transporter uptake, CNT3-transfected MDCK cells; assay type: in vitro ADME
T2 construct: expressed in transfected cells; host or cells: MDCK-II
T2 sequence (Q9HAS3 whole entry): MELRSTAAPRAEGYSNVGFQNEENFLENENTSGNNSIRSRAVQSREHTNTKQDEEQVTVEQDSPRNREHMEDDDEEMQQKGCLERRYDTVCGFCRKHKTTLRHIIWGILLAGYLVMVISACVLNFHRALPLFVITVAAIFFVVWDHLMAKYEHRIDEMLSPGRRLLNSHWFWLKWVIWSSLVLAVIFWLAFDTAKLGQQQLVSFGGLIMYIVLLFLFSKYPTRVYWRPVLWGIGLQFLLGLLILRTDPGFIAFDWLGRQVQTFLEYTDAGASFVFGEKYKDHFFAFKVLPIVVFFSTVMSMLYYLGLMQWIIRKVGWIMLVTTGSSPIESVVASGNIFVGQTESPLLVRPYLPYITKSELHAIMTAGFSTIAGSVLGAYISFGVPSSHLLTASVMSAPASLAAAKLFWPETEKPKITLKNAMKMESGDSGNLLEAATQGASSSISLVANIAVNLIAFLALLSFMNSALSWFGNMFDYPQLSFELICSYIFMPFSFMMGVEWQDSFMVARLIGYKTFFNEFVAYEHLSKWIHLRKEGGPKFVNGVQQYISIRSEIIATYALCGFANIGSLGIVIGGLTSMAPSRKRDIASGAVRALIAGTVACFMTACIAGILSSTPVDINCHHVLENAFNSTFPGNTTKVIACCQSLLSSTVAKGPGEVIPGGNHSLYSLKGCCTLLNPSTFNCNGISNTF
Excerpt: Each condition was run in triplicate.

[7] = assay type: in vitro ADME, human, rat, mouse, dog, monkey
Experimental: Samples were analyzed using UPLC-MS/MS.

[8] = pH 7.4, with Ko143 0.5 µM, 0.5 µM Ko143

Q: Which EC50 [1] does the source give for `N#C[C@@]1(c2ccc3c(N)ncnn23)O[C@H](CO)[C@@H](O)[C@H]1O` [GS-441524] here?
A: 1.86 µM

Q: What about the Vd ([2]; 1 mg/kg) of the same compound?
A: 2.6 L/kg

Q: And the clearance ([2]; 1 mg/kg)?
A: 31 mL/min/kg

Q: What about the Vd ([2]; 5 mg/kg) of the same compound?
A: 2.2 ± 0.3 L/kg

Q: And the clearance ([2]; 5 mg/kg)?
A: 25 ± 1.6 mL/min/kg

Q: What about the AUC(0-inf) ([2]; 10 mg/kg) of the same compound?
A: 2170 ng·h/mL

Q: What about the Cmax ([2]; 10 mg/kg) of the same compound?
A: 193 ± 57 ng/mL

Q: And the Tmax ([2]; 10 mg/kg)?
A: 3.8 ± 2.4 h

Q: What about the bioavailability ([2]; 10 mg/kg) of the same compound?
A: 33 ± 9.8%

Q: And the AUC(0-inf) ([2]; 30 mg/kg)?
A: 4220 ng·h/mL

Q: And the Cmax ([2]; 30 mg/kg)?
A: 326 ± 77 ng/mL

Q: And the Tmax ([2]; 30 mg/kg)?
A: 3.8 ± 2.4 h

Q: And the bioavailability ([2]; 30 mg/kg)?
A: 21 ± 3.8%

Q: And the AUC(0-inf) ([2]; 100 mg/kg)?
A: 9560 ng·h/mL

Q: And the Cmax ([2]; 100 mg/kg)?
A: 825 ± 91 ng/mL

Q: And the Tmax ([2]; 100 mg/kg)?
A: 2.3 ± 1.3 h

Q: And the bioavailability ([2]; 100 mg/kg)?
A: 15 ± 3.2%

Q: And the half-life ([2]; 10 mg/kg, PO 10 mg/kg, read-out: t1/2 (converted))?
A: 3.4 ± 0.2 h

Q: What about the half-life ([2]; 30 mg/kg, PO 30 mg/kg, read-out: t1/2 (converted)) of the same compound?
A: 3.4 ± 0.2 h

Q: And the half-life ([2]; 100 mg/kg, PO 100 mg/kg, read-out: t1/2 (converted))?
A: 4.2 ± 1.8 h

Q: And the half-life ([2]; 100 mg/kg, PO 10, 30 and 100 mg/kg, read-out: Half-life (t1/2))?
A: 3.4 to 4.2 h

Q: What about the “Tolerability at maximum feasible dose” value [3] of the same compound?
A: well tolerated

Q: And the “Potency on viral titer (TCID50) at 24 h” value ([4]; 24 h)?
A: lower potency than EIDD-2801

Q: And the “Viral titer (TCID50)” value ([4]; 24 h and 96 h after infection)?
A: significantly inhibited the viral infection; also recorded: reduced viral load

Q: And the Papp A→B at 2 h, 5 µM [5, 8]?
A: < 0.198 ×10⁻⁶ cm/s

Q: And the Papp B→A at 2 h, 5 µM [5, 8]?
A: < 0.281 ×10⁻⁶ cm/s

Q: What about the Papp A→B at 2 h, 5 µM ([5]; pH 7.4, no inhibitor) of the same compound?
A: < 0.197 ×10⁻⁶ cm/s

Q: What about the Papp B→A at 2 h, 5 µM ([5]; pH 7.4, no inhibitor) of the same compound?
A: 0.385 ×10⁻⁶ cm/s

Q: And the “Substrate of CNT3” value [6]?
A: substrate

Q: And the “Inhibition of uptake by reference inhibitor” value ([6]; CNT3-transfected cells, reference inhibitor adenosine, 30 µM GS-441524)?
A: 98.9%

Q: And the “Stability in cytosolic fractions” value [7]?
A: stable

Q: What about the “Stability in liver microsomes” value [7] of the same compound?
A: stable
